The values below are quoted from earlier work in patent publication US5756508A, “Muscarine antagonists” (Merck & Co., Inc., priority 1996, dated 1998).

For data set [1], the system named is smooth muscle (ordinarily called m3 type). The conditions noted are these: background statement.
For data set [2], the system named is axial elongation of the eye. The conditions noted are these: background statement.
A further data set relates to pupil; ciliary muscle. The conditions noted are these: background statement.
The test system of data set [3] is muscarinic receptors (antimuscarinic). To be noted: background statement.
The conditions of data set [4]: background statement.

In the case of `C[N+]1(C)CCC(OC(=O)C(c2ccccc2)c2ccccc2)CC1` [Example 4-DAMP, 4-diphenylacetoxy-N-methylpiperadine methiodide], the “selectivity for smooth muscle (m3 type) receptors” value in data set [1] is given as “relatively selective antagonist for smooth muscle”.

With `CN1CCc2cccc3c2[C@H]1Cc1ccc(O)c(O)c1-3` [apomorphine], the “inhibition of axial elongation / enlargement of the eye” value in data set [2] is on record as “found to inhibit or actually prevent the axial enlargement of the eye”.

`CN1[C@@H]2CC[C@H]1C[C@@H](OC(=O)C(CO)c1ccccc1)C2` (stereo partly drawn) [atropine]: in the data set with pupil; ciliary muscle, the “impairment of ocular focusing / near visual work” value is reported as “impairs near visual work like reading” and the “pupil dilation (mydriasis)” value is on record as “causes mydriasis (increase of pupil size)”. Also, the “antimuscarinic action / specificity” value in data set [3] was “long-acting non-specific antimuscarinic agent”. Also, the sensitization result in data set [4] is listed as “test positive in sensitization assays”.

Consider `CN1CCN(CC(=O)N2c3ccccc3C(=O)Nc3cccnc32)CC1` [pirenzepine], for which the “pupil dilation (mydriasis)” value in the data set on pupil; ciliary muscle is listed as “far less effective at pupil dilation than atropine”. The “inhibition of axial elongation / enlargement of the eye” value in data set [2] is listed as “inhibits axial elongation”. For the same molecule, in data set [4], the sensitization result is recorded as “test positive in sensitization assays”.
